What all share (assay): microbe, parasite or virus in culture
Common to all, as to assay type: cell-based

For experiment [1], the system named is HCV 1a RLuc cells (dicistronic genotype 1a H77 replicon, RLuc reporter). Particulars: Hepatitis C virus, read-out: 1a. An outline of the steps:
(§1)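 Replicon cells stably carrying the listed RLuc-encoding dicistronic replicons were seeded and treated with DMSO serial dilutions of compound (10 mM stocks) diluted into culture medium. After 72 h, cells were lysed and Renilla luciferase activity measured. EC50 was derived by non-linear regression.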

Experiment [2] relates to HCV 1b RLuc cells (dicistronic genotype 1b Con1 replicon, RLuc reporter). Particulars: Hepatitis C virus, read-out: 1b (nM). The procedure, abridged:
as §1

The subject of experiment [3] is HCV 2a JFH-1 Rluc cells (dicistronic genotype 2a JFH-1 replicon, RLuc reporter). Particulars: Hepatitis C virus, genotype 2a JFH-1 replicon, read-out: 2a JFH. The procedure, abridged: as §1
For experiment [4], the system named is HCV 3a RLuc cells (NS5A chimeric genotype 1b Con1 replicon with consensus genotype 3a NS5A gene). Particulars: Hepatitis C virus. The procedure, abridged: as §1
The subject of experiment [5] is HCV 4a Rluc cells (NS5A chimeric genotype 1b Con1 replicon with genotype 4a NS5A gene). Particulars: Hepatitis C virus, read-out: 4a. The procedure, abridged: as §1
The mark [6] stands for this setting: 72 h, Table 2, genotype 1a H77 replicon, 72 hours.
Where [7] appears, read: read-out: 3a, Table 2, genotype 3a NS5A chimeric replicon.
Where [8] appears, read: read-out: 3a, genotype 3a replicon.
The mark [9] stands for this setting: genotype 1a H77 replicon, RLuc reporter.
Setting [10] is: read-out: 3a, genotype 3a NS5A chimeric 1b Con1 replicon.
Setting [11] is: 72 h, Table 1, genotype 1a H77 replicon, 72 hours.
Where [12] appears, read: read-out: 3a, Table 1, genotype 3a NS5A chimeric replicon.

Results on 20 molecules are retold here after patent publication US10344019B2 (priority 2010, dated 2019).

pEC50: −log10 of the molar value. Like-named read-outs stand apart in the source and are kept apart here.

As to `COC(=O)N[C@H](C(=O)N1CCC[C@H]1c1ncc(-c2ccc3cc(-c4ccc(-c5cnc([C@@H]6[C@@H]7CC[C@@H](C7)N6C(=O)[C@H](NC(=O)OC)c6ccccc6)[nH]5)cc4)ccc3c2)[nH]1)C(C)C` [Example 51], the pEC50 in experiment [1] (setting [6]) is 7.36 to 9.00; in experiment [3] (72 h, Table 2, 72 hours), 7.36 to 9.00; in experiment [4] (setting [7]), 8.30 to 9.00; in experiment [5], 9.00 to 12.00. Also, the EC50 in experiment [2] (72 h) worked out at 0.012 nM.

With `COC(=O)N[C@H](C(=O)N1CCC[C@H]1c1ncc(-c2ccc3c(c2F)COc2c-3ccc(-c3cnc([C@@H]4CCCN4C(=O)[C@@H](NC(=O)OC)C(C)C)[nH]3)c2F)[nH]1)C(C)C` [Example 330], the pEC50 in experiment [1] (genotype 1a replicon), in experiment [3], in experiment [4] (setting [8]) and in experiment [5] was 9.00 to 12.00 in each case. Further, in experiment [2], the EC50 is 0.006 nM.

Take `COC(=O)N[C@H](C(=O)N1CC2(C[C@H]1c1nc3ccc(-c4ccc5c(c4)C(F)(F)c4cc(-c6cnc([C@@H]7CCCN7C(=O)[C@H](NC(=O)OC)c7ccccc7)[nH]6)ccc4-5)cc3[nH]1)OCCO2)C1CCOCC1` [Example 59]: the pEC50 in experiment [1] (setting [6]) was 9.00 to 12.00; in experiment [3] (72 h, Table 2, 72 hours), 9.00 to 12.00; in experiment [4] (setting [7]), 9.00 to 12.00; in experiment [5], 9.00 to 12.00. In addition, the EC50 in experiment [2] (72 h) was 0.016 nM.

`COC(=O)NC(C(=O)N1CCC[C@H]1c1ncc(-c2ccc3c(c2)C(F)(F)c2cc(-c4ccc(-c5cnc([C@@H]6CCCN6C(=O)[C@@H](NC(=O)OC)C6CCOCC6)[nH]5)cc4)ccc2-3)[nH]1)C1CCOCC1` (stereo partly shown) [Example 202]: the pEC50 in experiment [1] (setting [9]) is 9.00 to 12.00; in experiment [3] (RLuc reporter), 7.36 to 9.00; in experiment [4] (setting [10]), under 8.30; in experiment [5] it was 9.00 to 12.00. In addition, the EC50 in experiment [2] turned out to be 0.017 nM.

In the case of `COC(=O)N[C@H](C(=O)N1CC(F)(F)C[C@H]1c1ncc(-c2ccc(-c3ccc4cc(-c5cnc([C@@H]6CCCN6C(=O)[C@H](NC(=O)OC)c6ccccc6)[nH]5)ccc4c3)cc2)[nH]1)[C@@H](C)OC` [Example 263], the pEC50 in experiment [1] (setting [9]), in experiment [3] (RLuc reporter), in experiment [4] (setting [10]) and in experiment [5] was 9.00 to 12.00 in each case. The EC50 in experiment [2] came to 0.006 nM.

As for `COC(=O)N[C@H](C(=O)N1CCC[C@H]1c1ncc(-c2cc3c4c(c2)CCc2cc(-c5cnc([C@@H]6CCCN6C(=O)[C@@H](NC(=O)OC)[C@H](C)OC)[nH]5)cc(c2-4)CC3)[nH]1)C(C)C` [Example 25], the pEC50 was 9.00 to 12.00 in experiment [1] (setting [11]); 9.00 to 12.00 in experiment [3] (72 h, Table 1, 72 hours); 9.00 to 12.00 in experiment [4] (setting [12]); 9.00 to 12.00 in experiment [5]. The EC50 in experiment [2] (72 h) was 0.021 nM.

In the case of `COC(=O)N[C@H](C(=O)N1CCC[C@H]1c1ncc(-c2ccc(-c3ccc(-c4cnc([C@@H]5[C@H]6CC[C@H](C6)N5C(=O)[C@@H](NC(=O)OC)C5CCOCC5)[nH]4)cc3)cc2)[nH]1)C(C)C` [Example 61], the pEC50 is 9.00 to 12.00 in experiment [1] (setting [6]); 9.00 to 12.00 in experiment [3] (72 h, Table 2, 72 hours); 8.30 to 9.00 in experiment [4] (setting [7]); 9.00 to 12.00 in experiment [5]. For the same molecule, the EC50 in experiment [2] (72 h) came to 0.087 nM.

For `COC(=O)N[C@H](C(=O)N1CCC[C@H]1c1ncc(-c2ccc3cc(-c4ccc(-c5cnc([C@@H]6CCCN6C(=O)C6(NC(=O)OC)CCc7ccccc76)[nH]5)cc4)ccc3c2)[nH]1)C(C)C` (stereo partly shown) [Example 196], the pEC50 was 7.36 to 9.00 in experiment [1] (setting [9]), 7.36 to 9.00 in experiment [3] (RLuc reporter), under 8.30 in experiment [4] (setting [10]) and 9.00 to 12.00 in experiment [5]. The EC50 in experiment [2] worked out at 0.036 nM.

Regarding `COC(=O)NC(C(=O)N1CCC[C@H]1c1nc(-c2ccc3cc(-c4ccc5c(ccc6nc([C@@H]7CCCN7C(=O)[C@@H](NC(=O)OC)C(C)C)[nH]c65)c4)ccc3c2)c[nH]1)c1cccnc1` (stereo partly shown) [Example 228], the pEC50 in experiment [1] (setting [9]), in experiment [3] (RLuc reporter), in experiment [4] (setting [10]) and in experiment [5] was 9.00 to 12.00 each time. Besides, the EC50 in experiment [2] turned out to be 0.015 nM.

`COC(=O)N[C@H](C(=O)N1CCC[C@H]1c1nc2ccc3cc(-c4ccc(-c5cnc([C@@H]6CCCN6C(=O)[C@H](NC(=O)OC)c6ccccc6)[nH]5)cc4C#CC4CC4)ccc3c2[nH]1)C(C)C` [Example 351]: the pEC50 in experiment [1] (genotype 1a replicon), in experiment [3], in experiment [4] (setting [8]) and in experiment [5] was 9.00 to 12.00 throughout. For the same molecule, the EC50 in experiment [2] worked out at 0.008 nM.

In the case of `COC(=O)N[C@H](C(=O)N1CC2(CC2)C[C@H]1c1ncc(-c2ccc(-c3ccc4cc(-c5cnc([C@@H]6CCCN6C(=O)[C@H](NC(=O)OC)c6ccccc6)[nH]5)ccc4c3)cc2)[nH]1)C(C)C` [Example 233], the pEC50 in experiment [1] (setting [9]), in experiment [3] (RLuc reporter), in experiment [4] (setting [10]) and in experiment [5] was 9.00 to 12.00 each time. Besides, the EC50 in experiment [2] is 0.005 nM.

As for `COC(=O)N[C@H](C(=O)N1CCC[C@H]1c1nc2c([nH]1)COc1cc(-c3ccc4cc(-c5c[nH]c([C@@H]6CCCN6C(=O)[C@@H](c6ccccc6)N(C)C)n5)ccc4c3)ccc1-2)C(C)C` [Example 177], the pEC50 in experiment [1] (setting [9]), in experiment [3] (RLuc reporter), in experiment [4] (setting [10]) and in experiment [5] was 9.00 to 12.00 throughout. Moreover, in experiment [2], the EC50 amounted to 0.01 nM.

On to `COC(=O)N[C@H](C(=O)N1CCC[C@H]1c1ncc(-c2ccc(-c3ccc4c(ccc5nc([C@@H]6CC7(CN6C(=O)[C@@H](NC(=O)OC)C6CCOCC6)OCCO7)[nH]c54)c3)cc2)[nH]1)C(C)C` [Example 91], for which the pEC50 in experiment [1] (setting [6]) was 9.00 to 12.00; in experiment [3] (72 h, Table 2, 72 hours), 9.00 to 12.00; in experiment [4] (setting [7]), 8.30 to 9.00; in experiment [5] it was 9.00 to 12.00. Further, the EC50 in experiment [2] (72 h) is 0.1 nM.

As to `COC(=O)N[C@H](C(=O)N1CCC[C@H]1c1nc2ccc3cc(C#Cc4ccc(-c5cnc([C@@H]6CCCN6C(=O)[C@H](NC(=O)OC)c6ccccc6)[nH]5)cc4)ccc3c2[nH]1)C(C)C` [Example 238], the pEC50 in experiment [1] (setting [9]), in experiment [3] (RLuc reporter), in experiment [4] (setting [10]) and in experiment [5] was 9.00 to 12.00 in each case. In addition, the EC50 in experiment [2] came to 0.005 nM.

For `COC(=O)N[C@H](C(=O)N1CCC[C@H]1c1ncc(-c2ccc3c4ccc(-c5cnc([C@@H]6CCCN6C(=O)[C@@H](NC(=O)OC)C6CCOCC6)[nH]5)cc4c4ccccc4c3c2)[nH]1)C(C)C` [Example 293], the pEC50 in experiment [1] (genotype 1a replicon), in experiment [3], in experiment [4] (setting [8]) and in experiment [5] was 9.00 to 12.00 throughout. Besides, in experiment [2], the EC50 was 0.042 nM.

With `COC(=O)NC(C(=O)N1CCC[C@H]1c1ncc(-c2ccc3cc(-c4ccc(-c5cnc([C@@H]6C[C@@H](C)CN6C(=O)[C@@H](NC(=O)OC)C6CCOCC6)[nH]5)cc4)ccc3c2)[nH]1)c1ccccc1` (stereo partly shown) [Example 204], the pEC50 in experiment [1] (setting [9]), in experiment [3] (RLuc reporter), in experiment [4] (setting [10]) and in experiment [5] was 9.00 to 12.00 each time. The EC50 in experiment [2] worked out at 0.03 nM.

On to `COC(=O)NC(C(=O)N[C@H](c1ncc(-c2ccc3c(c2)C(F)(F)c2cc(-c4ccc5nc([C@@H]6CCCN6C(=O)[C@@H](NC(=O)OC)[C@@H](C)OC)[nH]c5c4)ccc2-3)[nH]1)C(C)C)C(C)C` (stereo partly shown) [Example 248], for which the pEC50 in experiment [1] (setting [9]) was 7.36 to 9.00; in experiment [3] (RLuc reporter) it was 7.36 to 9.00; in experiment [4] (setting [10]), under 8.30; in experiment [5], 9.00 to 12.00. Besides, the EC50 in experiment [2] worked out at 0.024 nM.

`COC(=O)N[C@@H](C)C(=O)N1CCC[C@H]1c1ncc(-c2ccc3c(c2)COc2c-3ccc3cc(-c4cnc([C@@H]5CCCN5C(=O)[C@H](NC(=O)OC)c5ccccc5)[nH]4)ccc23)[nH]1` [Example 7]: the pEC50 in experiment [1] (setting [11]) was 9.00 to 12.00; in experiment [3] (72 h, Table 1, 72 hours), 9.00 to 12.00; in experiment [4] (setting [12]), 9.00 to 12.00; in experiment [5], 9.00 to 12.00. Further, the EC50 in experiment [2] (72 h) worked out at 0.008 nM.

As to `COC(=O)N[C@H](C(=O)N1CCC[C@H]1c1nc2ccc3cc(-c4ccc5cc(-c6cnc([C@@H]7CCCN7C(=O)[C@@H](NC(=O)OC)C7CCOCC7)[nH]6)ccc5c4)ccc3c2[nH]1)C(C)C` [Example 195], the pEC50 was 9.00 to 12.00 in experiment [1] (setting [9]), 9.00 to 12.00 in experiment [3] (RLuc reporter), 8.30 to 9.00 in experiment [4] (setting [10]) and 9.00 to 12.00 in experiment [5]. Further, the EC50 in experiment [2] came to 0.023 nM.

Turning to `COC(=O)N[C@H](C(=O)N1CCC[C@H]1c1ncc(-c2ccc3cc(-c4ccc(-c5cnc([C@@H]6CCCN6C(=O)[C@@H](NC(=O)OC)[C@@H](C)OC)[nH]5)cc4)ccc3c2)[nH]1)C(C)C` [Example 240], the pEC50 in experiment [1] (setting [9]) was 9.00 to 12.00; in experiment [3] (RLuc reporter) it was 9.00 to 12.00; in experiment [4] (setting [10]) it was 8.30 to 9.00; in experiment [5] it was 9.00 to 12.00. Moreover, in experiment [2], the EC50 was determined as 0.01 nM.
